Experiments:
S. lutea = assay: antibacterial activity (plate assay) vs S. lutea; type: cell-based
Experimental: The oxazoline (74 mg., 0.236 mmole) was dissolved in HMPT (1.5 ml.) and the solution was degassed with dry nitrogen for 0.5 hr. Then 0.83 ml. of a 0.612 M solution of t-BuSLi (0.508 mmole), prepared by method A, was added during 0.5 hr. and the mixture was stirred overnight. […] The characteristic peak of the oxazolinecarboxylic acid, 2-benzyl-6-(1'-carboxy-2'-methyl-prop-1'-enyl)-1-oxa-3,6-diaza-4S,5R-bicyclo [3,2,0] hept-2-ene-7-one, were absent from the spectrum.

[1] = antibacterial activity (organism not stated); type: cell-based; conditions: at levels of 250 mcg./ml.

CC(Oc1ccc(Cl)cc1)C(=O)N[C@@H]1C(=O)N2[C@@H]1OC(C)(C)[C@@H]2C(=O)O (stereo partly drawn)
antibacterial activity vs. S. lutea (S. lutea): high antibacterial activity

CC1(C)O[C@@H]2[C@H](N3C(=O)c4ccccc4C3=O)C(=O)N2[C@H]1C(=O)O [6-phthalimido oxapenicillin]
antibacterial activity versus S. lutea relative to phthalimidopenicillin (S. lutea; compared with phthalimidopenicillin): one-tenth the level of phthalimidopenicillin

CC(C)=C(C(=O)O)N1C(=O)[C@H]2N=C(Cc3ccccc3)O[C@H]21 [oxazoline carboxylic acid, 2-benzyl-6-(1'-carboxy-2'-methylprop-1'-enyl)-1-oxa-3,6-diaza-4S,5R-bicyclo [3.2.0] hept-2-en-7-one]
antibacterial activity at 250 mcg./ml. [1]: inactive

From patent US4018782A, “2,2-Dimethyl-3R-carboxy-6S- acylamido-1-oxa-4-aza-5R-bicyclo[3,2,0]heptan-7-ones” (Queen's University, priority 1974, dated 1977)
